Experimental data taken from patent US20190134054A1, “ASSOCIATION OF ANTAGONISTS OF THE VASOPRESSIN RECEPTOR AND CALCIMIMETICS, COMPOSITION AND USE THEREOF FOR THE TREATMENT OF POLYCYSTIC KIDNEY” (UNIVERSITA' DEGLI STUDI DI BARI ALDO MORO, priority 2017, published 2019).
Entries after “also recorded” stand apart in the source; their conditions may differ.

Experiments:
V2 receptor = biological target: T1, V2 receptor (Canis lupus familiaris, UniProt O77808); experiment: dDAVP-induced intracellular cAMP levels (1/netFRET) in MDCK cells; format: cell-based, canine; settings: dDAVP+TLV vs. dDAVP and CTR
T1 construct: canine kidney cells MDCK endogenously expressing the V2 receptor; endogenous in cells; host or cells: MDCK (canine kidney cells)
Description: The effects of the antagonists of the vasopressin receptor on the concentration of intracellular cAMP have been studied in the canine kidney cells MDCK endogenously expressing the V2 receptor.
Such a reduction of the cAMP levels has been detected through 1/netFRET.
Thus, the treatment with Tolvaptan leads to a reduction of the intracellular cAMP levels. The cAMP levels have been measured through 1/netFRET.

[1] = test system: intracellular calcium levels; experiment: Intracellular calcium levels after tolvaptan; format: cell-based; settings: treatment with Tolvaptan; CTR=67.06±2.6 nM, P<0.0001
Procedure: The treatment with Tolvaptan determines an increase of the intracellular calcium levels (TLV=99.6±4.1 nM; CTR=67.06±2.6 nM, P<0.0001).

ciPTECwt cells = experiment: Intracellular calcium levels after tecalcet (Fura 2), ciPTECwt cells; format: cell-based, human; settings: 10 μM, n=40
Procedure: (§1) The experiments described from Example 1 to Example 5 have been carried out on i) ciPTEC human kidney cells of the proximal tubule isolated from healthy subjects (ciPTECwt), ii) on the same cells silenced for the gene encoding the polycystin 1 (ciPTE-PC1KO) and iii) on ciPTEC cells isolated from patients affected by ADPKD (ciPTEC-PC1Pt).
(§2) Three types of the aforementioned cellular lines have been treated with 10 μM calciomimetic tecalcet, and the result is that the ciPTEC-PC1Pt cells, isolated from patients suffering from the polycystic kidney disease, respond similarly to the ciPTECwt cells to the stimulation with the calciomimetic, thus leading to an increase of intracellular calcium levels (FIG. 4). Such intracellular calcium levels, in the present example, have been detected thanks to the colorant Fura 2 that is sensitive to calcium.
(§3) The ciPTEC-PC1Pt cells respond similarly to the ciPTECwt cells to the stimulation with NPS-R568 calciomimetic, also called tecalcet, at a concentration of 10 μM. […] The intracellular calcium levels have been measured through the colorant Fura 2 that is sensitive to calcium.

ciPTEC-PC1KO cells [2] = experiment: Intracellular calcium levels after tecalcet (Fura 2), ciPTEC-PC1KO cells; format: cell-based, human; settings: 10 μM, n=47
Procedure: as §1, §2, §3

ciPTEC-PC1Pt cells [3] = experiment: Intracellular calcium levels after tecalcet (Fura 2), ciPTEC-PC1Pt cells; format: cell-based, human; settings: 10 μM, ciPTEC-PC1Pt cells (ADPKD patients), n=30
Procedure: as §1, §2, §3

ciPTEC-PC1KO cells [4] = experiment: Intracellular cAMP levels after tecalcet (FRET), ciPTEC-PC1KO cells; format: cell-based, human; settings: 10 μM, 1/netFRET
Description: as §1
(§4) Such cAMP levels have been measured through FRET.
(§5) The cAMP levels have been measured through 1/netFRET.

ciPTEC-PC1Pt cells [5] = experiment: Intracellular cAMP levels after tecalcet (FRET), ciPTEC-PC1Pt cells; format: cell-based, human; settings: 10 μM, 1/netFRET
Description: as §1, §4, §5

mTOR signaling pathway [6] = experiment: mTOR signaling: S6 ribosomal protein phosphorylation, ciPTEC-PC1KO cells; format: cell-based, human; settings: 10 μM
Description: as §1
(§6) In the present example, the activity of mTOR has been studied by detecting the phosphorylation levels of the S6 ribosomal protein.
(§7) By treating the aforementioned cells with the calciomimetic tecalcet at the concentration of 10 μM, the activity of mTOR is reduced, thus decreasing the S6 phosphorylation.

mTOR signaling pathway [7] = experiment: mTOR signaling: S6 ribosomal protein phosphorylation, ciPTEC-PC1Pt cells; format: cell-based, human; settings: 10 μM
Description: as §1, §6, §7

T1 sequence (O77808 whole entry): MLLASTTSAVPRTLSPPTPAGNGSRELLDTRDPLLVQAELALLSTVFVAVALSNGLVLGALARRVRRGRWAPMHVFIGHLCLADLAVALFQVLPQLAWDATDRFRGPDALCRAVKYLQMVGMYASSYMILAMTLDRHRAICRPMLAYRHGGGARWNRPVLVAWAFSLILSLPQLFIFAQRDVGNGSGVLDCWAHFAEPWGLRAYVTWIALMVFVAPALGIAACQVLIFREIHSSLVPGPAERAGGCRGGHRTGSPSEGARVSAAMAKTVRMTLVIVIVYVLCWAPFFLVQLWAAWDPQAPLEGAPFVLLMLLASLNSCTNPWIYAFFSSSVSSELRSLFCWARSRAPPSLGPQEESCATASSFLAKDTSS

SMILES | cAMP levels induced by vasopressin (dDAVP) (V2 receptor) | intracellular calcium levels [1] | intracellular calcium levels, response vs. ATP 100% (ciPTECwt cells) | intracellular calcium levels, response vs. ATP 100% (ciPTEC-PC1KO cells [2]) | intracellular calcium levels, response vs. ATP 100% (ciPTEC-PC1Pt cells [3]) | basal intracellular cAMP levels (ciPTEC-PC1KO cells [4]) | basal intracellular cAMP levels (ciPTEC-PC1Pt cells [5]) | S6 phosphorylation levels (mTOR activity) (mTOR signaling pathway [6]) | S6 phosphorylation levels (mTOR activity) (mTOR signaling pathway [7])
Cc1ccccc1C(=O)Nc1ccc(C(=O)N2CCCC(O)c3cc(Cl)ccc32)c(C)c1 (stereo not drawn) [Tolvaptan] | comparable to those of the control | 99.6 ± 4.1 nM |  |  |  |  |  |  | 
COc1cccc([C@@H](C)NCCCc2ccccc2Cl)c1 [tecalcet] |  |  | 90.68±2.47% | 24.32±2.59% | 29.51±3.93% | reduces the basal cAMP levels | reduces the basal cAMP levels | comparable levels to those observed in the ciPTECwt cells; also recorded: reduces the phosphorylation of S6 | reduces the phosphorylation of S6
